Data on one molecule can be found in paper PMC11676896, “Protective Action of Cannabidiol on Tiamulin Toxicity in Humans—In Vitro Study” (International Journal of Molecular Sciences, 2024).

In series [1] the test system is primary porcine hepatocytes. Further details: method as in PMID 10682383. The note with it: 250 µM (123.5 µg/mL), 24 h of exposure; cited from earlier work.
For series [2], the system named is SH-SY5Y cells. As to the kind of experiment: TPC assay (total protein content, proliferation). In kind it is cell-based, human. The following applies: 72 h. The method, then: (§1) The cytotoxic potential of the veterinary drug and its mixtures with cannabidiol at two non-toxic concentrations: 1.56 and 3.15 µg/mL, on the human SH-SY5Y, HepG2 and HEK 293 cell lines was assessed by decreased viability of the cells within five biochemical endpoints: mitochondrial activity and lysosomal activity (MTT assays, reducing the tetrazolium dye MTT 3-(4,5-dimethylthiazol-2-yl)-2,5-diphenyltetrazolium bromide and neutral red uptake (NRU) assays), total protein content (TPC assay), cellular membrane integrity (leakage lactate dehydrogenase (LDH) assay) and DNA synthesis (the bromodeoxyuridine/5-bromo-2′-deoxyuridine incorporation into the DNA cells (BrdU) assay) after 72 h exposition. Data obtained from the measurement of the optical density in these assays were transformed to percentages in relation to the negative control group (0.1% DMSO in medium), considered to be 100% for the MTT, NRU, TPC and BrdU assays and 0% for the LDH assay. 1% Trition-X 100 solution in medium was used as the positive controls, (Figure 3).
(§2) The human neuroblastoma (SH-SY5H), hepatoma (HepG2) and kidney cells (HEK 293) cells were purchased from the American Type Culture Collection: ATCCCRL-2266,ATCC HB-8065 and ATCC CRL-1573, respectively. These cells were cultured in Minimum Essential Medium Eagle (MEME) (ATCC). The media were supplemented with 10% FBS, 1% L-glutamine (and 1% antibiotic solution (P4333 Sigma). The cells were maintained in 75 cm^2 cell culture flasks (NUNC) in a humidified incubator at 37 °C in an atmosphere of 5% CO2. The medium was refreshed every two or three days, and the cells were subcultured by 0.25% trypsin–0.02% EDTA after reaching 70–80% confluence. Single cell suspensions were prepared and adjusted to a density of 2 × 10^5 cell/mL^−1 (SH-SY5H), 1 × 10^5 cell/mL^−1 (HepG2) and 1 × 10^5 cell/mL^−1 (HEK-293). The cell suspension was transferred to 96-well plates (100 µL/well) or Lab-Tek chamber slides (8 wells) (Nunc) for staining and incubated for 24 h before the exposure to the studied compounds. Stock solutions of tiamulin fumarate and cannabidiol were prepared in DMSO and diluted with culture medium to obtain a concentration range from 1.56 to 200 µg/mL and 1.56 or 3.156 µg/mL, respectively. The selection of tiamulin concentrations was based on data from the literature and pilot studies. The final concentration of DMSO was 0.1% in the medium. The same final concentrations of the solvent and the 1% Trition-X 100 solution were used as the negative and positive controls, respectively. A total of 500 µM hydrogen peroxide (H2O2) in was used as the positive control in the DCFH assay. […] As a negative control, cultured cells were grown in the absence of studied compounds. Each concentration was tested in six replicates in three independent experiments. Cytotoxicity was assessed after 72 h of exposure of the cells to the compounds. The medium was not changed during the incubation time.
(§3) This assay is based upon staining the total cellular protein (proliferation). After the incubation, the medium containing the drug was removed, and 100 µL Coomassie brilliant blue R-250 dye was added to each well. The plate was shaken for 10 min. Then, the stain was removed and the cells were rinsed twice with 100 µL of washing solution (glacial acetic acid/ethanol/water, 5:10:85, v:v:v). After that, 100 µL of the desorbing solution (1 M potassium acetate) was added, and plates were shaken again for 10 min. The absorbance was measured at 595 nm in a Synergy 2 Multi-Mode Microplate Reader (BioTek® Instruments Inc., Winooski, VT, USA) using a blank as a reference. Cytotoxicity was expressed as a percentage of the negative control (0.1% DMSO in medium).
(§4) This study was performed in three independent experiments. The obtained results are presented as mean values ± SD (standard deviation). […]

The subject of series [3] is HepG2 cells. Nature of the series: TPC assay (total protein content, proliferation). In kind it is cell-based, human. The following applies: HepG2, 72 h. How it is done: as §1, §2, §3, §4
In series [4] the test system is HEK 293 cells. Nature of the series: TPC assay (total protein content, proliferation). In kind it is cell-based, human. How it is done:
as §1, §2, §3, §4

Series [5] concerns HepG2 cells. Nature of the series: Cytotoxicity over the five assays (MTT, NRU, TPC, LDH, BrdU). The note with it: Homo sapiens, HepG2, 72 h, read-out: IC50 values, range over the five assays. It counts as cell-based. How it is done: as §1
(§5) The human neuroblastoma (SH-SY5H), hepatoma (HepG2) and kidney cells (HEK 293) cells were purchased from the American Type Culture Collection: ATCCCRL-2266,ATCC HB-8065 and ATCC CRL-1573, respectively. These cells were cultured in Minimum Essential Medium Eagle (MEME) (ATCC). […] Cytotoxicity was assessed after 72 h of exposure of the cells to the compounds. […]

The test system of series [6] is HEK-293 cells. The series is described as above. In kind it is cell-based. The note with it: Homo sapiens, HEK293, 72 h, read-out: IC50 values, range over the five assays. The method, then:
as §1, §5

Series [7] concerns SH-SY5Y cells. Nature of the series: NRU assay (lysosomal activity). It counts as cell-based, human. The note with it: 72 h. How it is done:
as §1
(§6) The human neuroblastoma (SH-SY5H), hepatoma (HepG2) and kidney cells (HEK 293) cells were purchased from the American Type Culture Collection: ATCCCRL-2266,ATCC HB-8065 and ATCC CRL-1573, respectively. These cells were cultured in Minimum Essential Medium Eagle (MEME) (ATCC). The media were supplemented with 10% FBS, 1% L-glutamine (and 1% antibiotic solution (P4333 Sigma). The cells were maintained in 75 cm^2 cell culture flasks (NUNC) in a humidified incubator at 37 °C in an atmosphere of 5% CO2. The medium was refreshed every two or three days, and the cells were subcultured by 0.25% trypsin–0.02% EDTA after reaching 70–80% confluence. Single cell suspensions were prepared and adjusted to a density of 2 × 10^5 cell/mL^−1 (SH-SY5H), 1 × 10^5 cell/mL^−1 (HepG2) and 1 × 10^5 cell/mL^−1 (HEK-293). The cell suspension was transferred to 96-well plates (100 µL/well) or Lab-Tek chamber slides (8 wells) (Nunc) for staining and incubated for 24 h before the exposure to the studied compounds. Stock solutions of tiamulin fumarate and cannabidiol were prepared in DMSO and diluted with culture medium to obtain a concentration range from 1.56 to 200 µg/mL and 1.56 or 3.156 µg/mL, respectively. […] Cytotoxicity was assessed after 72 h of exposure of the cells to the compounds. […]
(§7) This method is based on staining living cells with neutral red, which readily diffuses through the plasma membrane and accumulates in lysosomes. […] After 10 min of shaking, the absorbance of the dissolved NR was measured using a Synergy 2 Multi-Mode Microplate Reader (BioTek® Instruments Inc., Winooski, VT, USA) at 540 nm using a blank as a reference. Cytotoxicity was expressed as a percentage of the negative control (0.1% DMSO in medium). […]

The subject of series [8] is HEK 293 cells. Nature of the series: NRU assay (lysosomal activity). In kind it is cell-based, human. The method, then:
as §1, §6, §7

The mark [9] stands for this setting: Homo sapiens, read-out: inhibited concentration (IC50), TPC.

Molecules are shown by their SMILES. Counter-ions that a name gives are not always drawn.

In the case of `C=C[C@]1(C)C[C@@H](OC(=O)CSCCN(CC)CC)[C@]2(C)[C@H](C)CC[C@]3(CCC(=O)[C@H]32)[C@@H](C)[C@@H]1O` [T, tiamulin fumarate], the “ROS production in the hepatocyte culture” value in series [1] is “increased ROS production”. The “tiamulin concentration that decreased total protein content / inhibited proliferation” value in series [2] turned out to be 25 µg/mL. The IC50 was 169 ± 3.3 µg/mL in series [2] (setting [9]); 26.7 ± 1.4 µg/mL in series [3] (setting [9]); 8.5 ± 0.6 µg/mL in series [4] (Homo sapiens, HEK293, 72 h, read-out: inhibited concentration (IC50), TPC); 13.9 to 39.5 µg/mL in series [5]; 8.5 to 76.9 µg/mL in series [6]; 2.1 ± 0.4 µg/mL in series [7] (Homo sapiens, read-out: inhibited concentration (IC50), NRU). Also, the IC50 in series [8] (Homo sapiens, HEK293, 72 h, read-out: inhibited concentration (IC50), NRU) stood at 34.5 ± 1.1 µg/mL. Further, the “tiamulin concentration that inhibited cell proliferation” value in series [3] stood at 50 µg/mL. Further, the “tiamulin concentration that inhibited proliferation” value in series [4] (HEK-293, 72 h) amounted to 12.5 µg/mL. The “tiamulin concentration that inhibited lysosomal activity” value is reported as 1.56 µg/mL in series [7] (significant (p ≤ 0.05) vs negative control) and 25 µg/mL in series [8] (HEK-293, 72 h).
